One test deals with pAMPK. As to the kind of experiment: pAMPK immunoblotting in Beas2B cells (Table 1). It is filed as cell-based. The following applies: Homo sapiens, BEAS-2B, DMEM media without glucose, compounds 18 h. Here is the method:
Additional compounds in Table 1 were or can be prepared according to the above-described Examples. Human bronchial epithelial cells (Beas2B) were seeded in 6-well plates for 18 h. Cells were then exposed to DMEM media without glucose and compounds at various concentrations for an additional 18 h before being collected for immunoblotting.
A general note: Immunoblotting shows a protein as a band on a membrane.

Another test has as its system PBMC cells. As to the kind of experiment: LPS-induced cytokine release from PBMCs (ELISA). It is filed as cell-based. The method, then:
(§1) FIG. 4. (A) Beas2b cells were cultured in DMEM 2% media with glucose for 24 h before switching to glucose-free media. Cells were then exposed to Compound 12 in a dose dependent manner for 18 h before being collected for immunoblotting. (B) Beas2b cells were cultured in DMEM 2% media with glucose for 24 h before Compound 12 treatment in a dose dependent manner. After 18 h, cells were then collected for immunoblotting. (C) Beas2b cells were cultured in DMEM 2% media with glucose for 24 h before switching to glucose-free media. Cells were then exposed to Compound 12 for 18 h before being collected for mRNA analysis. (D) 50K PBMC cells were cultured in 96 well plates before being exposed to Compound 12 for 4 h. Cells were then treated with LPS (10 ng/ml) for additional 2 h. Media were then collected and IL-1b concentration was determined by ELISA.
FIG. 10. (A) 50K PBMC cells were cultured in 96 well plates before being exposed to Compound 23 for 18 h. Cells were then treated with LPS (10 ng/ml) for additional 4 h. Media were then collected and TNF and IL-1b concentration were determined by ELISA. (B) PBMC cells (1 mL at 1.0×10^6/ml) were treated with Compound 23 (5 μM) for 18 h. Cells were then treated with 100 ng/ml LPS for 4 h. Cytokine release was monitored by the human cytokine array (R&D systems). The results from a cytokine array dot blot were quantitated and graphed.
A SAR study was performed by constructing analogs of Compound 1. […] Compound 12 was further tested in PBMCs. Briefly, PBMCs were treated with Compound 12 at various concentrations for 4 h before exposure to LPS (10 ng/ml) for 2 h.
Compound 23 was tested in in vitro inflammatory assays. 50K PBMC cells were cultured in 96 well plates before being exposed to Compound 23 for 18 h. Cells were then treated with LPS (10 ng/ml) for additional 4 h. Media were then collected and assayed for TNF and IL-1b. […] Cytokine arrays were used to profile which cyotokine/chemokines were regulated by Compound 23.

A further test deals with C57BL6 mice. Briefly: LPS-induced sepsis model. It is filed as in vivo. The following applies: i.p., LPS (E. coli) 3 mg/kg i.p. after 10 min, blood at 2 h. Here is the method: FIG. 5. C57BL6 mice were administered i.p. vehicle, 0.04, 0.2, 1 or 5 mg/kg of Compound 12. After 10 min, mice were given LPS (E. coli, 3 mg/kg) through an i.p. injection and, after 2 h, mice were euthanized and blood was collected for IL1-β, IL-6 and TNFα measurements. Shown in panels (D)-(F) is % inhibition of cytokine levels as a function of drug dose. The data represent n=3 mice/group at each dose. Protein (A), cell counts (B), bacterial count (C), and presence of AMPK and pAMPK (G) were also determined.
FIG. 11. (A-B.) C57BL6 mice were administered i.p. vehicle, 0.08, 0.4, 2 or 10 mg/kg of Compound 23. After 10 min, mice were given LPS (E. coli, 3 mg/kg) through an i.p. injection and, after 2 h, mice were euthanized and blood collected for IL-6 and TNFα measurements. Shown in panels (A-B.) are the cytokine levels as a function of drug dose. The data represent n=3 mice/group at each dose. (C-G) Compound 23 (2 or 10 mg/kg) was administered to mice though an i.p. injection, and mice were immediately challenged with LPS (E. coli, 3 mg/kg, i.t.) or without (control, CON) for an additional 18 h. Mice were then euthanized and lungs were lavaged with saline, harvested, and then homogenized. Lavage protein (C), cell counts (D) and cytokine secretions (E-G) were measured. The data are representative of data from n=5 mice/group, *P<0.05 versus vehicle.
In a sepsis model, Compound 12 was administered to mice at various doses through an i.p. injection, and, after 10 min, the mice were given LPS (E. coli; 3 mg/kg i.p.). Two hours later, the mice were euthanized, and blood was collected and assayed for IL-1β, IL-6 and TNFα cytokine levels.
Compound 23 was tested in a sepsis model. Compound 23 was administered to mice at various doses through an i.p. injection, and 10 min later, mice were given LPS (E. coli; 3 mg/kg i.p.). After 2 h, mice were euthanized and blood was collected and assayed for IL-6 and TNFα cytokine levels. […] Finally, Compound 23 was tested in a pneumonia model using LPS endotoxin. […] Thus Compound 23 protects the lung against LPS induced lung injury.

Another test deals with phospho-AMPK. Briefly: phospho-AMPK / p-ACC immunoblotting in Beas2B cells (in vitro studies). It is filed as cell-based, Human. Here is the method: FIG. 3. (A) Beas2b cells were cultured in DMEM 2% media with glucose for 24 h before switching to glucose-free media. Cells were then exposed to either DMSO or Compound 1 (2 μM) in a time course before being collected for immunoblotting. (B) Beas2B cells were exposed to Compound 1 for 18 h at various doses before being collected for immunoblotting. (C) Beas2b cells were cultured in DMEM 2% media with glucose for 24 h before switching to glucose-free media. Cells were then exposed to AICAR at various doses with or without Compound 1 co-treatment. After 18 h, cells were collected before being assayed by immunoblotting.
as §1
FIG. 9. (A) Beas2b cells were cultured in DMEM 2% media with glucose for 24 h before switching to glucose-free media. Cells were then exposed to Compound 23 or metformin in a dose dependent manner for 18 h before being collected for immunoblotting. (B) Beas2b cells were cultured in DMEM 2% media with glucose for 24 h before switching to glucose-free media and treated with Compound 12 or Compound 23 in a dose dependent manner. After 6 h, cells were then collected for immunoblotting. (C) Beas2b cells were cultured in DMEM 2% media with glucose for 24 h before switching to glucose-free media and treated with Compound 12 or Compound 23 in a dose dependent manner. After 18 h, cells were then collected for immunoblotting. (D) Beas2b cells were transfected with AMPK phospho mimic T172D or phospho dead T172A mutant for 24 h. Cells were then switched to glucose-free media and exposed to Compound 23 in a dose or time dependent manner before being collected for immunoblotting. (E) Beas2b cells were transfected with control siRNA or Fbxo48 siRNA for 48 h before switching to glucose-free media. Cells were then exposed to Compound 23 in a dose dependent manner before being collected for immunoblotting. (F) Compound 23 chemical structure.
Compound 1 was studied in in vitro assays using Beas2B cells. […]
Compound 23 was tested in in vitro studies using Beas2B cells and compared with metformin.

Where [1] appears, read: compound 18 h, then LPS 10 ng/ml 4 h.

The structures appear in SMILES notation.

As to `OC(COc1ccc(F)cc1)CN(Cc1ccccc1)Cc1ccccc1` (stereo not drawn) [Compound 12], in the test on pAMPK, the IC50 (usually the concentration that gives 50% inhibition) was less than 1 µg/mL. Besides, in the test with PBMC cells (compound 4 h, then LPS 10 ng/ml 2 h), the “LPS induced IL-1 release from PBMCs” value is recorded as “potently inhibit”. Also, in the test with C57BL6 mice, the “ID50 IL-1β” value was 0.1 mg/kg, the “ID50 IL-6” value is reported as 0.4 mg/kg and the “ID50 TNF-α” value is on record as 0.4 mg/kg. The “concentration effectively increasing phospho-AMPK and downstream p-ACC levels” value in the test on phospho-AMPK (Beas2b, with or without glucose, 18 h) was 100 to 500 nM.

Turning to `OC(COc1ccc(C(F)(F)F)cc1)CN(Cc1ccccc1)Cc1ccccc1` (stereo not drawn) [Compound 23], the IC50 with pAMPK was less than 1 µg/mL. Besides, in the test with PBMC cells (setting [1]), the IL-1b in media result is reported as “dose dependently decreased” and the TNF in media result is “dose dependently decreased”. In the test on C57BL6 mice, the “ID50 IL-6” value was determined as 0.4 mg/kg and the “ID50 TNF-α” value worked out at 0.4 mg/kg. Besides, the “level of AMPK T172D phospho mimic mutant” value in the test with phospho-AMPK (Beas2b transfected with T172D mutant, glucose-free media) is “drastically increases”. In addition, the “pAMPK and pACC levels after Fbxo48 knockdown” value in the test on phospho-AMPK (Beas2b, Fbxo48 siRNA 48 h, glucose-free media) is given as “not able to further activate the pathway”. Besides, in the test on phospho-AMPK (Beas2b, glucose-free media, 6 h and 18 h), the “activity on pAMPK compared to Compound 12” value was “comparable or slightly improved activity”. Further, in the test with phospho-AMPK (Beas2b, glucose-free media, 18 h), the “concentration range increasing pAMPK phosphorylation and downstream substrate ACC phosphorylation” value is “submicromolar”.

(Values after patent US11673853B2, “Small molecule AMPK activators” (University of Pittsburgh—Of the Commonwealth System of …, priority 2016, dated 2023).)
